# Source: PMC7848861 (Frontiers in Microbiology, 2021)
# Peptide text beside a SMILES is read from it.
# Key:
# [1] = tested on: human macrophages; assay: Uptake by macrophages (flow cytometry, confocal laser microscopy); assay type: cell-based; conditions: Atto647N-labeled peptide, 54 μM, 18 h, alone or incorporated into liposomes; flow cytometry and confocal microscopy, three donors
# Method: For investigation of Angie1 internalization, 1 × 10^6 macrophages were incubated with Angie1-Atto647N or Angie1-Atto647N Lip for 18 h. Samples were then analyzed using a FACS Calibur (BD Biosciences) with FlowJo v10.4.1 (BD). For confocal laser microscopy, 0.1 × 10^6 macrophages were seeded in 200 μl M-SFM in an eight-chamber slide (Thermo Fisher) and incubated with Angie1-Atto 647 N (54 μM) or Angie1-Atto 647 N Lip (54 μM) or Angiogenin-Atto647N Lip. After overnight incubation, cells were fixed (4% PFA, Sigma-Aldrich), followed by blocking in 2% BSA. Subsequently macrophages were labeled with major histocompatibility antigen class II antibodies (HLA-DR; 1:200, clone L243, Leinco, St. Louis, MS, United States) detected by Cy2-conjugated goat anti-mouse antibodies (1:200, Dianova, Hamburg, Germany). Cell nuclei were stained with DAPI (1:200, Sigma-Aldrich) diluted in 1% BSA and 0.1% Triton X-100 in PBS (all Sigma-Aldrich). Images were acquired using the inverted laser scanning confocal microscope LSM 710 (Zeiss, Oberkochen, Germany). Image processing was performed using ImageJ software (v 1.52c).
# [2] = tested on: zebrafish embryos; assay: Toxicity against zebrafish embryos; assay type: in vivo; conditions: 1, 10, and 100 μM, exposure 24 h from 24 hpf, scored at 48 hpf, n = 60 embryos each group
# Method: Wild-type zebrafish embryos were dechorionated at 24 h post fertilization (hpf) using digestion with 1 mg/ml pronase (Sigma) in E3 medium (83 μM NaCl, 2.8 μM KCl, 5.5 μM CaCl2, and 5.5 μM MgSO4). Embryos were exposed for 24 h, in groups of three, to 100 μl of E3 medium containing Angie1 at 1, 10, and 100 μM. Each concentration was tested in two independent assays, each of which was performed on 10 × 3 embryos. The peptide solvent (PBS), diluted in E3, was used as negative control at the same amount as introduced by the highest peptide concentration. As positive control for acute toxicity/cytotoxicity the pleurocidin antimicrobial peptide NRC-03 ([…]-[…]-NH2) was used at a concentration of 6 μM as described ([Morash et al., 2011]). Abamectin at a concentration of 3.125 μM was used as positive control for neurotoxicity ([Raftery et al., 2014]). At 48 hpf (after 24 h of incubation) embryos were scored in a stereomicroscope for signs of acute toxicity/cytotoxicity (lysis and/or necrosis), developmental toxicity (delay and/or malformations), or cardiotoxicity (heart edema and/or reduced or absent circulation). Each embryo was also touched with a needle and reduced or absent touch response (escape movements) was evaluated as signs of neurotoxicity if and only if no signs of acute toxicity were present in the same embryo. […]
# [3] = Solubility in water; assay type: physicochemical
# [4] = tested on: primary human macrophages; assay: Toxicity of peptides against macrophages (PrestoBlue); assay type: cell-based; conditions: three independent experiments
# Method: Human peripheral blood mononuclear cells (PBMC) were isolated by density gradient centrifugation (Ficoll-Paque™ Plus; GE Healthcare) of buffy coat preparations from anonymous donors (Institute of Transfusion Medicine, Ulm University). Monocytes were isolated from PBMCs by adherence on tissue culture treated plastic flasks (Falcon, Corning, NY, United States). Monocyte-derived macrophages were generated by incubation with granulocyte-macrophage colony-stimulating factor (10 ng/ml; Miltenyi Biotec, Bergisch Gladbach, Germany) in Macrophage-Serum Free Medium (M-SFM; Gibco, ThermoFisher Scientific, Schwerte, Germany) for 6 days.
# About 1 × 10^5 macrophages were incubated with peptides for 18 h in a 96-well plate, followed by addition of 10% PrestoBlue™ (Thermo Fisher) for 20 min. The non-fluorescent resazurin-based PrestoBlue is reduced to fluorescent resorufin by mitochondrial enzymes of viable cells ([Xu et al., 2015]). The fluorescence intensity (FI) was measured at λex 560 nm and λem 600 nm using Infinite 200 PRO (Tecan, Männedorf, Suisse) plate reader. Cell viability (%) was calculated using the following formula where the ratio of the FIs of the sample and the untreated control is calculated after subtracting the background FI introduced by the same volume of cell culture medium: [FI (sample)-FI (background)]/[FI (untreated control)-FI (background)] × 100.
# [5] = Half-life of Angie1 in human serum; assay type: in vitro ADME; conditions: human serum (Lonza 14-490E) spiked with 10 μM, 37°C, aliquots 5–120 min, LC-MS (Orbitrap Elite) signal area, triplicates, GraphPad Prism
# Method: Human serum (14-490E, Lonza, Basel, Switzerland) was spiked with 10 μM Angie1 and incubated at 37°C for 2 h in triplicates. After 5, 10, 20, 30, 45, 60, 90, and 120 min; aliquots (5 μl) were diluted with 1.5 ml ice cold TFA (0.1%). Around 15 μl of each sample was analyzed using an Orbitrap Elite system (Thermo Fisher Scientific) as described above. XCalibur Qual Browser (Thermo Fisher Scientific) was used for visualization of the total ion chromatograms and spectra, as well as for signal area calculation. The theoretical spectrum of Angie1 and its degradation products were generated and the highest intensity signals were used as reference for detecting Angie1 and its degradation products. Plot graphs (signal area vs. time) and half-lives were calculated with GraphPad Prism 8.0 (GraphPad, La Jolla, CA, United States).
# [6] = tested on: Mycobacterium tuberculosis H37Rv (extracellular Mtb); assay type: cell-based; conditions: 100 μM peptide; 2 × 10^6 Mtb, 96 h incubation, 3H-Uracil uptake vs untreated control; mean ± SD, triplicates of three independent experiments
# [7] = tested on: primary human monocytes or macrophages; assay: Chemotaxis or cytokine release by monocytes or macrophages (not shown); assay type: cell-based; conditions: data not shown
# [8] = tested on: intracellular Mtb in primary human macrophages; assay type: cell-based, Mycobacterium tuberculosis; conditions: 10 μM, 4 days, MOI 5, CFU on 7H11 after 21 days; diluent control 9.5-fold; p < 0.05; six donors
Molecule,Uptake by macrophages [1],"Toxicity to zebrafish embryos (acute/cyto-, cardio-, developmental, neurotoxicity) [2]",Solubility in water [3],"Toxicity for primary human macrophages ([4]; Angie1 at 27, 54, or 108 μM, PrestoBlue, 24 h)",Half-life in human serum [5],half-life at 10 μM [5],Antimicrobial activity against extracellular Mtb [6],Induction of chemotaxis or cytokine release [7],Multiplication of intracellular Mtb (n-fold growth d4 vs d0) [8],"Viability of macrophages ([4]; Angiogenin 10 μM, 18 h (legend: 24 h), PrestoBlue resazurin metabolism)"
CC[C@H](C)[C@H](NC(=O)[C@H](C)NC(=O)[C@H](CCCCN)NC(=O)[C@@H](NC(=O)[C@H](CO)NC(=O)[C@@H](NC(=O)[C@H](CCCCN)NC(=O)[C@H](CC(N)=O)NC(=O)CNC(=O)[C@H](Cc1c[nH]cn1)NC(=O)[C@@H](NC(=O)[C@H](Cc1ccccc1)NC(=O)[C@@H](NC(=O)[C@H](CC(N)=O)NC(=O)[C@@H](NC(=O)[C@H](C)NC(=O)[C@@H](N)CCCCN)[C@@H](C)CC)[C@@H](C)O)[C@@H](C)CC)[C@@H](C)CC)[C@@H](C)CC)C(=O)O [Angie1] (H-KAINTFIHGNKISIKAI-OH),equally efficient,no toxicity,soluble in water,not toxic,3 min,3.06 min,–,–,–,–
"Angiogenin: endogenous 123 amino acid, 14.1 kDa protein identified in hemofiltrate; tested as synthetic Angiogenin",–,–,–,–,–,–,94 ± 2%,do not induce chemotaxis or cytokine release,5.2 fold,did not affect the viability
